By IC50 is commonly meant the concentration that gives 50% inhibition.

Test [1] deals with T1, FemA (SAR1388) (Staphylococcus aureus, UniProt P0A0A5).
T1 construct: recombinant, C-terminal hexahistidine tag
Kind of test: in vitro glycyl transfer assay with purified FemA, monoglycyl lipid II and […]-glycine, TLC/phosphoimaging; supported by pull-down with biotinylcyslabdan. It counts as biochemical.

The next test addresses T2, FemB (Staphylococcus aureus, UniProt Q2FYR1).
T2 construct: recombinant, C-terminal hexahistidine tag
The test is described as follows: pull-down of purified recombinant protein on biotinylcyslabdan-immobilized avidin beads, SDS-PAGE (some background binding to beads alone).

For test [2], the target named is T1, FemA (SAR1388). Kind of test: pull-down of purified recombinant protein on biotinylcyslabdan-immobilized avidin beads, SDS-PAGE; also from MRSA lysate with LC-MS/MS. It counts as binding.

T1 sequence (P0A0A5 whole entry): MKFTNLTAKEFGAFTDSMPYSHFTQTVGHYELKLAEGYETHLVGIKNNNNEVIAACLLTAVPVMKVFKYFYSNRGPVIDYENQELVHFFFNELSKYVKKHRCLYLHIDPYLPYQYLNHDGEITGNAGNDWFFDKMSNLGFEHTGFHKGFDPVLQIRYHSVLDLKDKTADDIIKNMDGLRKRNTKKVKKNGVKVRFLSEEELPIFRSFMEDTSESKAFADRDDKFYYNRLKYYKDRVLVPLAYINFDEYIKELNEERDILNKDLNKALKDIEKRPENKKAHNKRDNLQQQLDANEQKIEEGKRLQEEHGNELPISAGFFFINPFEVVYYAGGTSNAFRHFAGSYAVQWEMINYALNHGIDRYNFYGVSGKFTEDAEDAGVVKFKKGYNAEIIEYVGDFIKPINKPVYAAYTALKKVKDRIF
T2 sequence (Q2FYR1 whole entry): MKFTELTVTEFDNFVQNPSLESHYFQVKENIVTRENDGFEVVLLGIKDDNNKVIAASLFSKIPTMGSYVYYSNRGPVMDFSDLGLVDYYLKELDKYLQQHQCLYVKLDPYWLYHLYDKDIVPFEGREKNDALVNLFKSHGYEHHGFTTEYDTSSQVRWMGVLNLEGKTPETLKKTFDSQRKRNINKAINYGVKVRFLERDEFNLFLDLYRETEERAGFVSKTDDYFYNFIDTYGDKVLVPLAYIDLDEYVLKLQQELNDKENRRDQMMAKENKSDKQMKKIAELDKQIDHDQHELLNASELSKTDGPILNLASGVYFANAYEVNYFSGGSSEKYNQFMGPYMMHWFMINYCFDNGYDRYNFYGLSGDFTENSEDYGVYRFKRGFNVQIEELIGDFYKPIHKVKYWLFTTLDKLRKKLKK

As for `C=C/C(C)=C/C[C@@H]1[C@@]2(C)CCCC(C)(C)[C@@H]2C[C@H](O)[C@]1(O)CSC[C@H](NC(C)=O)C(=O)O` [cyslabdan], the IC50 at FemA (SAR1388) [1] was found to be 530 µM. Take `C=C/C(C)=C/CC1C2(C)CCCC(C)(C)C2CC(O)C1(O)CSC[C@H](NC(C)=O)C(=O)NCCOCCOCCNC(=O)CCCCC1SC[C@@H]2NC(=O)N[C@H]12` (stereo partly drawn) [biotinylcyslabdan]: the “pull-down of purified recombinant protein on biotinylcyslabdan-immobilized avidi” value on FemB is listed as “FemB was bound to only avidin beads, while the binding amount of FemB increased in the presence of biotinylcyslabdan”; on FemA (SAR1388) [2], “Purified recombinant SAR1388 protein was then added to avidin beads onto which biotinylcyslabdan had been immobilized”.

Values taken from publication PMC3490914, “The Nonantibiotic Small Molecule Cyslabdan Enhances the Potency of β-Lactams against MRSA by Inhibiting Pentaglycine Interpeptide Bridge Synthesis” (PLoS ONE, 2012).
